Assay results taken from US11691980B2, “Liphagal analog and multi-targeted kinase inhibitor containing liphagal or analog thereof” (TOHOKU UNIVERSITY, priority 2017, dated 2023).

Legend:
Type in all cases: biochemical
PKD3 = target: T1, PKD3 (Homo sapiens, UniProt O94806); assay: mobility shift assay
T1 construct: purchased Carna Biosciences

PRKX = target: T2, PRKX (Homo sapiens, UniProt P51817); assay: mobility shift assay
T2 construct: purchased Carna Biosciences

FGR3(K650E) = target: T3, FGR3(K650E) (Homo sapiens, UniProt P22607, K650E); assay: mobility shift assay
T3 construct: purchased Carna Biosciences

PKD2 = target: T4, PKD2 (Homo sapiens, UniProt Q9BZL6); assay: mobility shift assay
T4 construct: purchased Carna Biosciences

COK6/CycD3 = target: T5, COK6/CycD3 (Homo sapiens, UniProt Q00534); assay: mobility shift assay
T5 construct: purchased Carna Biosciences
T5 sequence (Q00534 whole entry): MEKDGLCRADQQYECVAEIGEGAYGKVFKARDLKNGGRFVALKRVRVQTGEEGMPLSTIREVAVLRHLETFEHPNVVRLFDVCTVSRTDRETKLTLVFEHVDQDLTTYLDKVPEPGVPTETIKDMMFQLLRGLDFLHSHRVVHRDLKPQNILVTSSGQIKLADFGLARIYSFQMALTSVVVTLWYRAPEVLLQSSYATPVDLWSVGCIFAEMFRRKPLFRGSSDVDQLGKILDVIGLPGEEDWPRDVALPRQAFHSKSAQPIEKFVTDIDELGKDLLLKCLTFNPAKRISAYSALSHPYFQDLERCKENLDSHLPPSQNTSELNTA
T5 sequence (P30281 whole entry partner): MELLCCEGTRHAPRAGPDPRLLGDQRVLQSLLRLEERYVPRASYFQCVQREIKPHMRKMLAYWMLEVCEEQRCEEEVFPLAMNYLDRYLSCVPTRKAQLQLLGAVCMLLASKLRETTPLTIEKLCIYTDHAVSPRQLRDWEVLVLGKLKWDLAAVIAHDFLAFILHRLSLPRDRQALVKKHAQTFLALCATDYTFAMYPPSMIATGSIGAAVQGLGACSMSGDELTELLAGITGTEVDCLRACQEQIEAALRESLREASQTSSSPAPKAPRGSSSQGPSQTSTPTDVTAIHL

CDK5/p25 = target: T6, CDK5/p25 (Homo sapiens, UniProt Q00535); assay: mobility shift assay
T6 construct: purchased Carna Biosciences

AurB = target: T7, AurB (Homo sapiens, UniProt Q96GD4); assay: mobility shift assay
T7 construct: purchased Carna Biosciences

JAK2 = target: T8, JAK2 (Homo sapiens, UniProt O60674); assay: mobility shift assay
T8 construct: purchased Carna Biosciences

CK1y3 = target: T9, CK1y3 (Homo sapiens, UniProt Q9Y6M4); assay: mobility shift assay
T9 construct: purchased Carna Biosciences

CKIα = target: T10, CKIα (Homo sapiens, UniProt P48729); assay: mobility shift assay
T10 construct: purchased Carna Biosciences
T10 sequence (P48729 whole entry): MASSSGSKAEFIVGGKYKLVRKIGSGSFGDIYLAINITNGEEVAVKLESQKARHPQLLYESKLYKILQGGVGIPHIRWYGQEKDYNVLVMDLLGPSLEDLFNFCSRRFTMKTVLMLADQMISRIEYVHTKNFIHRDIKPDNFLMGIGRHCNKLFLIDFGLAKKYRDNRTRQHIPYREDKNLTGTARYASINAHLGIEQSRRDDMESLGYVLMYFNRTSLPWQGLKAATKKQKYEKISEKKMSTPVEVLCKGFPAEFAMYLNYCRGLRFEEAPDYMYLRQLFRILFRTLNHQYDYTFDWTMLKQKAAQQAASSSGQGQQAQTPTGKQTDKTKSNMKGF

KIT = target: T11, KIT (Homo sapiens, UniProt P10721); assay: mobility shift assay
T11 construct: purchased Carna Biosciences

ARG = target: T12, ARG (Homo sapiens, UniProt P42684); assay: mobility shift assay
T12 construct: purchased Carna Biosciences
T12 sequence (P42684 whole entry): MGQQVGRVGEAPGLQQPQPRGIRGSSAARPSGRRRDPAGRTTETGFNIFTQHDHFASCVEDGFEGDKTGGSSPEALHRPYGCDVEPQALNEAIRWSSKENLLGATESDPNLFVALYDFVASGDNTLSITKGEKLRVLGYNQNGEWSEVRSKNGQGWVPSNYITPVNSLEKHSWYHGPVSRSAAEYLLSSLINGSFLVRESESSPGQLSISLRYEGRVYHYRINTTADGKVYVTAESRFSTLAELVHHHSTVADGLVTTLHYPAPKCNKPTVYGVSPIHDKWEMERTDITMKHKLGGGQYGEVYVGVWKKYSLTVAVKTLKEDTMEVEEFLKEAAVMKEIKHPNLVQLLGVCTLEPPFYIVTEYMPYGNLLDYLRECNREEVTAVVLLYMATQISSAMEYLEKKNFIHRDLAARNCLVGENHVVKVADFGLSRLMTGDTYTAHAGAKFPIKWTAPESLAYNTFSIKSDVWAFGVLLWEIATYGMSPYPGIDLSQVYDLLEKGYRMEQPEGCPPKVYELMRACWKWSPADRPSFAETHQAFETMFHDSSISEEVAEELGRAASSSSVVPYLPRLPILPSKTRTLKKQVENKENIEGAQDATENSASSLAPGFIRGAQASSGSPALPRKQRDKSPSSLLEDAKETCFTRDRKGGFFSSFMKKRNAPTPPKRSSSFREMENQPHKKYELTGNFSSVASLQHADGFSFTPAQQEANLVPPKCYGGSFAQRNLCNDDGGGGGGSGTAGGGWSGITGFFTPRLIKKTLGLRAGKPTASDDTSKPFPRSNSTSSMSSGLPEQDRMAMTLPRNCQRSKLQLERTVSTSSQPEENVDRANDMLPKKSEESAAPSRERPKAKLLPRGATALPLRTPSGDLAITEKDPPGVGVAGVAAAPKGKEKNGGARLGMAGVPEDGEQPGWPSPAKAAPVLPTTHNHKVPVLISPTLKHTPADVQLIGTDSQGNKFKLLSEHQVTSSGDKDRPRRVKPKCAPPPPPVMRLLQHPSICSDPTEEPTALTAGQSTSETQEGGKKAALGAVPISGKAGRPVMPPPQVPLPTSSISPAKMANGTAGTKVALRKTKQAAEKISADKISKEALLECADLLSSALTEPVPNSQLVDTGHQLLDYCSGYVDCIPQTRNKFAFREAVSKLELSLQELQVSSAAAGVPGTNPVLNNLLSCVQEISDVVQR

HPK3 = target: T13, HPK3 (Homo sapiens, UniProt Q9H422); assay: mobility shift assay
T13 construct: purchased Carna Biosciences

NPM1-ALK = target: T14, NPM1-ALK (Homo sapiens, UniProt Q9UM73); assay: mobility shift assay
T14 construct: purchased Carna Biosciences; the other entry of the earlier key: NPM1 (P06748, Nucleophosmin)

CDK2/CycE1 = target: T15, CDK2/CycE1 (Homo sapiens, UniProt P24941); assay: mobility shift assay
T15 construct: purchased Carna Biosciences

MNK2 = target: T16, MNK2 (Homo sapiens, UniProt Q9HBH9); assay: mobility shift assay
T16 construct: purchased Carna Biosciences

PKCθ = target: T17, PKCθ (Homo sapiens, UniProt Q04759); assay: mobility shift assay
T17 construct: purchased Carna Biosciences

PDHK2 = target: T18, PDHK2 (Homo sapiens, UniProt Q15119); assay: mobility shift assay
T18 construct: purchased Carna Biosciences

TEC = target: T19, TEC (Homo sapiens, UniProt P42680); assay: mobility shift assay
T19 construct: purchased Carna Biosciences

JNK2 = target: T20, JNK2 (Homo sapiens, UniProt P45984); assay: mobility shift assay
T20 construct: purchased Carna Biosciences

PKACα = target: T21, PKACα (Homo sapiens, UniProt P17612); assay: mobility shift assay
T21 construct: purchased Carna Biosciences

PDGFRβ = target: T22, PDGFRβ (Homo sapiens, UniProt P09619); assay: mobility shift assay
T22 construct: purchased Carna Biosciences

CSK = target: T23, CSK (Homo sapiens, UniProt P41240); assay: mobility shift assay
T23 construct: purchased Carna Biosciences

SGK3 = target: T24, SGK3 (Homo sapiens, UniProt Q96BR1); assay: mobility shift assay
T24 construct: purchased Carna Biosciences

EPHA4 = target: T25, EPHA4 (Homo sapiens, UniProt P54764); assay: mobility shift assay
T25 construct: purchased Carna Biosciences

AurC = target: T26, AurC (Homo sapiens, UniProt Q9UQB9); assay: mobility shift assay
T26 construct: purchased Carna Biosciences
T26 sequence (Q9UQB9 whole entry): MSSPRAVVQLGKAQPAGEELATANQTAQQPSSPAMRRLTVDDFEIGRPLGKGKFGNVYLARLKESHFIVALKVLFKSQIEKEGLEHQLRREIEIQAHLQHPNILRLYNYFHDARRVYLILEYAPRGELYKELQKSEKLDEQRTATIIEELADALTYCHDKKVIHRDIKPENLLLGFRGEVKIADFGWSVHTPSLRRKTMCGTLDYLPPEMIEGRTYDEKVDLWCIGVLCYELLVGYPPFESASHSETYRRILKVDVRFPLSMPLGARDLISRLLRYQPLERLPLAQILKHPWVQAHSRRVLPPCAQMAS

NEK1 = target: T27, NEK1 (Homo sapiens, UniProt Q96PY6); assay: mobility shift assay
T27 construct: purchased Carna Biosciences

EGFR(d746-750/T790M) = target: T28, EGFR(d746-750/T790M) (Homo sapiens, UniProt P00533, DEL746-750/T790M); assay: mobility shift assay
T28 construct: purchased Carna Biosciences

MLK1_Cascade = target: T29, MLK1_Cascade (Homo sapiens, UniProt P80192); assay: mobility shift assay
T29 construct: purchased Carna Biosciences

ROCK1 = target: T30, ROCK1 (Homo sapiens, UniProt Q13464); assay: mobility shift assay
T30 construct: purchased Carna Biosciences

EML4-ALK = target: T31, EML4-ALK (Homo sapiens, UniProt Q9UM73); assay: mobility shift assay
T31 construct: EML4 (fusion partner, Q9HC35); purchased Carna Biosciences; the other entry of the earlier key: EML4 (Q9HC35, Echinoderm microtubule-associated protein-like 4)

IKKα = target: T32, IKKα (Homo sapiens, UniProt O15111); assay: IMAP Assay
T32 construct: purchased Carna Biosciences

KIT(V560G) = target: T33, KIT(V560G) (Homo sapiens, UniProt P10721, V560G); assay: mobility shift assay
T33 construct: purchased Carna Biosciences

FYN(isoform a) = target: T34, FYN(isoform a) (Homo sapiens, UniProt P06241); assay: mobility shift assay
T34 construct: purchased Carna Biosciences
T34 sequence (P06241 whole entry, canonical isoform): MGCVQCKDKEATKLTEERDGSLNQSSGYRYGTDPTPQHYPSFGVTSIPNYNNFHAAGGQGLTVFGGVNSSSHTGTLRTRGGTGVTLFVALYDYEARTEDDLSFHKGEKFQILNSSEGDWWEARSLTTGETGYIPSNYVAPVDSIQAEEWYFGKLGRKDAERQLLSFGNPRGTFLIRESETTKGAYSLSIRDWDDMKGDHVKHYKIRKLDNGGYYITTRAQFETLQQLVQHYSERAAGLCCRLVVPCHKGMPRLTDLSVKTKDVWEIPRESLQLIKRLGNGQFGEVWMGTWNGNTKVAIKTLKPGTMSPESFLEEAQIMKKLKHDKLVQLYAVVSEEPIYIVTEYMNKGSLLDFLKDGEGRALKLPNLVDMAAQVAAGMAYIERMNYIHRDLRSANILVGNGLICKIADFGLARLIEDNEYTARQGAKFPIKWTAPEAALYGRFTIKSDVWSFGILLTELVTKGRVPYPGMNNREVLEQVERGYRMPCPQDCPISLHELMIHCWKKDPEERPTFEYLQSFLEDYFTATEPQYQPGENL

KDR = target: T35, KDR (Homo sapiens, UniProt P35968); assay: mobility shift assay
T35 construct: purchased Carna Biosciences
T35 sequence (P35968 20-1356): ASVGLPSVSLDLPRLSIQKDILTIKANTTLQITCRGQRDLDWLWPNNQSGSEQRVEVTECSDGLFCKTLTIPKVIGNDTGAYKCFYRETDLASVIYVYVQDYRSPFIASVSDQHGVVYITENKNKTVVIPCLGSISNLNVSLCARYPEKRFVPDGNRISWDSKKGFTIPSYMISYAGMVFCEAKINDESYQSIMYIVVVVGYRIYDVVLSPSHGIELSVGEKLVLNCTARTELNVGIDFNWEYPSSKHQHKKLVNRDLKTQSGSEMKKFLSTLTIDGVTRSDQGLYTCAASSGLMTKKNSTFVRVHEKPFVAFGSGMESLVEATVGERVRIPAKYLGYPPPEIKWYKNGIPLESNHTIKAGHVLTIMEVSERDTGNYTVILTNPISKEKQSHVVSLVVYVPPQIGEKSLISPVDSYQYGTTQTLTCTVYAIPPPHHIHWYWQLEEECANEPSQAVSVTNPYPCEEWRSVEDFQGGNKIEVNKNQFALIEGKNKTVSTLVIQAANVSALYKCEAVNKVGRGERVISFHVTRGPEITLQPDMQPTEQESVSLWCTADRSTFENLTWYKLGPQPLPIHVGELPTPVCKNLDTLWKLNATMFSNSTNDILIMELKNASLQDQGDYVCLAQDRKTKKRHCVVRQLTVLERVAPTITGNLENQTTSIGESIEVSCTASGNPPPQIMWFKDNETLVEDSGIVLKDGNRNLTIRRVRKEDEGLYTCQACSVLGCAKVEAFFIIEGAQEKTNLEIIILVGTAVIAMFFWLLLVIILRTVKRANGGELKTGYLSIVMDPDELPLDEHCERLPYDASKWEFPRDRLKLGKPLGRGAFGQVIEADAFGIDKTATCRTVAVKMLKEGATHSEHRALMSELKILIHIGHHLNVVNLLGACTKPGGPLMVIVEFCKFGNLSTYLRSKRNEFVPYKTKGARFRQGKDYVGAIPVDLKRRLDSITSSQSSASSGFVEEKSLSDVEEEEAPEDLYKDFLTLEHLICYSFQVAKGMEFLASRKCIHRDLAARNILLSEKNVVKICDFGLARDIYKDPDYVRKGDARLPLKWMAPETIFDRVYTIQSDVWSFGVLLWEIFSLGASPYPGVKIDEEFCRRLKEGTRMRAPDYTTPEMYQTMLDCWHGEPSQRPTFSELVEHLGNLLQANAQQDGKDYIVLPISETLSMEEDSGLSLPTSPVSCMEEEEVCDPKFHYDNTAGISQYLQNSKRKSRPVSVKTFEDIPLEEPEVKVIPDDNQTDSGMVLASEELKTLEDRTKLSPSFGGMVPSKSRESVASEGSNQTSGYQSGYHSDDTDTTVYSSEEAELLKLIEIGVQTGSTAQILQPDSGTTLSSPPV

WNK1 = target: T36, WNK1 (Homo sapiens, UniProt Q9H4A3); assay: mobility shift assay
T36 construct: purchased Carna Biosciences

KKε = target: T37, KKε (Homo sapiens, UniProt Q14164); assay: mobility shift assay
T37 construct: purchased Carna Biosciences
T37 sequence (Q14164 whole entry): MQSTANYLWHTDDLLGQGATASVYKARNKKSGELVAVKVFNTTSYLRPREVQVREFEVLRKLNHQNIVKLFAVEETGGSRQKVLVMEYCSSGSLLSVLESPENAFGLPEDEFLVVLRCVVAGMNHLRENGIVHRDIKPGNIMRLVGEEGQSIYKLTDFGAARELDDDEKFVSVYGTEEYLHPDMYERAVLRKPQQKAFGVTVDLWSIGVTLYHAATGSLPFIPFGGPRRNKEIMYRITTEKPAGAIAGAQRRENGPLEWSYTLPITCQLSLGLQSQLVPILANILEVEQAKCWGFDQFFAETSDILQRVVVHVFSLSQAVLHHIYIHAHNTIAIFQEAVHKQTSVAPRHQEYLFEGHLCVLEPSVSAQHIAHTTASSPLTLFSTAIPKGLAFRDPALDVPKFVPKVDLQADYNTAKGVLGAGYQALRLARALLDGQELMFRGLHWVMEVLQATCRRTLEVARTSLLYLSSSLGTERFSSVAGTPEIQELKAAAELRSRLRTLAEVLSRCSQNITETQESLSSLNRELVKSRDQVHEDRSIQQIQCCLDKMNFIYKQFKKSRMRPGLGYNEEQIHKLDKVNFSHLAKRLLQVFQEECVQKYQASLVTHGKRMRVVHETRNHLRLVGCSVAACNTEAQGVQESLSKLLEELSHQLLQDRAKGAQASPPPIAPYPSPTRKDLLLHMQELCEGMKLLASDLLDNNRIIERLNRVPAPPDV

FES = target: T38, FES (Homo sapiens, UniProt P07332); assay: mobility shift assay
T38 construct: purchased Carna Biosciences

MLK2_Cascade = target: T39, MLK2_Cascade (Homo sapiens, UniProt Q02779); assay: mobility shift assay
T39 construct: purchased Carna Biosciences

RET(G691S) = target: T40, RET(G691S) (Homo sapiens, UniProt P07949, G691S); assay: mobility shift assay
T40 construct: purchased Carna Biosciences

C[C@@H]1CC[C@H]2C(C)(C)CCC[C@]2(C)c2c1oc1c(C=O)c(O)c(O)cc21 [LG-1, liphagal]
inhibition at 10 µM (PKD3): 2.7%
inhibition at 10 µM (PRKX): 20%
inhibition at 10 µM (FGR3(K650E)): -8.4%
inhibition at 10 µM (PKD2): 2.8%
inhibition at 10 µM (COK6/CycD3; COK6/CycD3): 72.7%
inhibitory activity against CDK6 (COK6/CycD3; in words, 10 μM): Potent inhibitory activity
inhibition at 10 µM (CDK5/p25): 17.8%
inhibition at 10 µM (AurB): 12.1%
inhibition at 10 µM (JAK2): -0.7%
inhibition at 10 µM (CK1y3): 3%
inhibition at 10 µM (CKIα): 20.5%
inhibition at 10 µM (KIT): 6%
inhibition at 10 µM (ARG): 1.4%
inhibition at 10 µM (HPK3): 20.5%
inhibition at 10 µM (NPM1-ALK): 2.3%
inhibition at 10 µM (CDK2/CycE1): 6.9%
inhibition at 10 µM (MNK2): 5.9%
inhibition at 10 µM (PKCθ): -15%
inhibition at 10 µM (PDHK2): 47.2%
inhibition at 10 µM (TEC): -1.2%
inhibition at 10 µM (JNK2): 10.7%
inhibition at 10 µM (PKACα): 2.3%
inhibition at 10 µM (PDGFRβ): -3.4%
inhibition at 10 µM (CSK): 7.2%
inhibition at 10 µM (SGK3): -0.5%
inhibition at 10 µM (EPHA4): 2%
inhibition at 10 µM (AurC): 36.3%
inhibition at 10 µM (NEK1): 13.9%
inhibition at 10 µM (EGFR(d746-750/T790M)): 2.5%
inhibition at 10 µM (MLK1_Cascade): 16.3%
inhibition at 10 µM (ROCK1): 0.5%
inhibition at 10 µM (EML4-ALK): 1.1%
inhibition at 10 µM (IKKα): 34.4%
inhibition at 10 µM (KIT(V560G)): 17.9%
inhibition at 10 µM (FYN(isoform a)): 0.5%
inhibition at 10 µM (KDR): -1.1%
inhibition at 10 µM (WNK1): 17.3%
inhibition at 10 µM (KKε): -6.3%
inhibition at 10 µM (FES): 23.4%
inhibition at 10 µM (MLK2_Cascade): 8.3%
inhibition at 10 µM (RET(G691S)): 14.8%
